Measurements from patent US9393232B2 (BeiGene, Ltd., priority 2013, dated 2016).
Read-outs that look alike come from different tables or passages of the source.

Tests used:
[1] = target: Recombinant human BRD4(1-477) (Homo sapiens (Human), UniProt O60885); experiment: BRD4 TR-FRET biochemical IC50 assay; type: binding; details: TR-FRET, tetra-acetylated histone peptide; read-out: BRD4 IC50
MV4-11 = MV4-11 (3 Days) EC50; type: cell-based

In the case of Cc1noc(C)c1-c1ccc2c(c1)C(O)(c1ccccc1)C(=O)N2 (single isomer, unassigned) [Compound 1.1a, 5-(3,5-dimethylisoxazol-4-yl)-3-hydroxy-3-phenylindolin-2-one], the IC50 [1] is reported as 35 nM and the EC50 (MV4-11; Homo sapiens, 72 h) is reported as 58 nM.
Cc1noc(C)c1-c1ccc2c(c1)C(N)(c1ccccc1)C(=O)N2 (single isomer, unassigned) [Compound 2.2a, 3-amino-5-(3,5-dimethylisoxazol-4-yl)-3-phenylindolin-2-one] gave an IC50 [1] of 24 nM and an EC50 (MV4-11) of 159 nM.
For Cc1noc(C)c1-c1ccc2c(c1)C(N)(c1ccccc1)C(=O)N2 (single isomer, unassigned) [Compound 2.2b, 3-amino-5-(3,5-dimethylisoxazol-4-yl)-3-phenylindolin-2-one], the IC50 [1] was 3600 nM and the EC50 (MV4-11) was greater than 10000 nM.
Cc1noc(C)c1-c1ccc2c(c1)C(c1ccsc1)(N1CCC[C@@H](O)C1)C(=O)N2 (single isomer, unassigned) [Compound 4.9a] gave an EC50 (MV4-11; Homo sapiens, MV4-11, 72 h) of 54 nM.
In the case of Cc1noc(C)c1-c1ccc2c(c1)C(c1ccsc1)(N1CCC[C@@H](O)C1)C(=O)N2 (single isomer, unassigned) [Compound 4.9b], the EC50 (MV4-11) is reported as 39 nM.
Cc1noc(C)c1-c1ccc2c(c1)C(c1ccsc1)(N1CCC[C@H](O)C1)C(=O)N2 (single isomer, unassigned) [Compound 4.10a] showed an EC50 (MV4-11; Homo sapiens, MV4-11, 72 h) of 72 nM.
Compound Cc1noc(C)c1-c1ccc2c(c1)C(c1ccsc1)(N1CCC[C@H](O)C1)C(=O)N2 (single isomer, unassigned) [Compound 4.10b] has an EC50 (MV4-11) of 56 nM.
C=CCCC1(O)C(=O)Nc2ccc(-c3c(C)noc3C)cc21 (stereo not drawn) [Compound 1.24, 3-(but-3-enyl)-5-(3,5-dimethylisoxazol-4-yl)-3-hydroxyindolin-2-one] was tested, and the EC50 (MV4-11; Homo sapiens, MV4-11, 72 h) was 934 nM.
Compound C=CCCCC1(O)C(=O)Nc2ccc(-c3c(C)noc3C)cc21 (stereo not drawn) [Compound 1.25, 5-(3,5-dimethylisoxazol-4-yl)-3-hydroxy-3-(pent-4-enyl)indolin-2-one] has an EC50 (MV4-11; Homo sapiens, MV4-11, 72 h) of 1540 nM.
With Cc1noc(C)c1-c1ccc2c(c1)C(OCCO)(C1CCCCC1)C(=O)N2 (stereo not drawn) [Compound 1.33, 3-Cyclohexyl-5-(3,5-dimethylisoxazol-4-yl)-3-(2-hydroxyethoxy)indolin-2-one] the EC50 (MV4-11; Homo sapiens, MV4-11, 72 h) was 307 nM.
Work on Cc1noc(C)c1-c1ccc2c(c1)C(N)(c1ccccc1)C(=O)N2 (stereo not drawn) [Compound 2.2, 3-amino-5-(3,5-dimethylisoxazol-4-yl)-3-phenylindolin-2-one] yielded an EC50 (MV4-11; Homo sapiens, MV4-11, 72 h) of 283 nM.
In the case of Cc1noc(C)c1-c1ccc2c(c1)C(c1ccccc1)(N1CCCC(O)C1)C(=O)N2 (stereo not drawn) [Compound 2.15, 5-(3,5-dimethylisoxazol-4-yl)-3-(3-hydroxypiperidin-1-yl)-3-phenylindolin-2-one], the EC50 (MV4-11; Homo sapiens, MV4-11, 72 h) is reported as 95 nM.
Cc1noc(C)c1-c1ccc2c(c1)C(c1ccccc1)(N1CCC[C@@H](O)C1)C(=O)N2 (stereo partly drawn) [Compound 2.17, 5-(3,5-dimethylisoxazol-4-yl)-3-((R)-3-hydroxypiperidin-1-yl)-3-phenylindolin-2-one] was tested, and the EC50 (MV4-11; Homo sapiens, MV4-11, 72 h) was 363 nM.
Compound Cc1noc(C)c1-c1ccc2c(c1)C(C1CCCCC1)(N1CCN(C)CC1)C(=O)N2 (stereo not drawn) [Compound 2.26, 3-cyclohexyl-5-(3,5-dimethylisoxazol-4-yl)-3-(4-methylpieprazin-1-yl)indolin-2-one] has an EC50 (MV4-11; Homo sapiens, MV4-11, 72 h) of 204 nM.
Compound Cc1noc(C)c1-c1ccc2c(c1)C(C1CCCC1)(N1CCN(C)CC1)C(=O)N2 (stereo not drawn) [Compound 2.36, 3-cyclopentyl-5-(3,5-dimethylisoxazol-4-yl)-3-(4-methylpiperazin-1-yl)indolin-2-one] has an EC50 (MV4-11; Homo sapiens, MV4-11, 72 h) of 596 nM.
For Cc1noc(C)c1-c1ccc2c(c1)C(c1ccccc1)(N1CCN(CCO)CC1)C(=O)N2 (stereo not drawn) [Compound 2.48, 5-(3,5-Dimethylisoxazol-4-yl)-3-(4-(2-hydroxyethyl)piperazin-1-yl)-3-phenylindolin-2-one], the IC50 [1] was 80 nM.
Cc1noc(C)c1-c1ccc2c(c1)C(c1ccccc1)(N1CCN(CCCO)CC1)C(=O)N2 (stereo not drawn) [Compound 2.49, 5-(3,5-Dimethylisoxazol-4-yl)-3-(4-(3-hydroxypropyl)piperazin-1-yl)-3-phenylindolin-2-one] gave an IC50 [1] of 84 nM.
Compound Cc1noc(C)c1-c1ccc2c(c1)C(c1ccccc1)(N1CCC[C@H]1CO)C(=O)N2 (stereo partly drawn) [Compound 2.53, 5-(3,5-Dimethylisoxazol-4-yl)-3-((s)-2-(hydroxymethyl)pyrrolidin-1-yl)-3-phenylindolin-2-one] has an IC50 [1] of 90 nM.
Cc1noc(C)c1-c1ccc2c(c1)C(c1ccccc1)(N1CCC[C@@H]1CO)C(=O)N2 (stereo partly drawn) [Compound 2.55, 5-(3,5-Dimethylisoxazol-4-yl)-3-((r)-2-(hydroxymethyl)pyrrolidin-1-yl)-3-phenylindolin-2-one] showed an IC50 [1] of 110 nM.
For COC(=O)[C@@H](Cc1cnc[nH]1)NC1(c2ccccc2)C(=O)Nc2ccc(-c3c(C)noc3C)cc21 (stereo partly drawn) [Compound 2.56, (2R)-Methyl 2-(5-(3,5-dimethylisoxazol-4-yl)-2-oxo-3-phenylindolin-3-ylamino)-3-(1h-imidazol-5-yl)propanoate], the IC50 [1] was 260 nM.
With COC(=O)[C@H](Cc1cnc[nH]1)NC1(c2ccccc2)C(=O)Nc2ccc(-c3c(C)noc3C)cc21 (stereo partly drawn) [Compound 2.57, (2S)-Methyl 2-(5-(3,5-dimethylisoxazol-4-yl)-2-oxo-3-phenylindolin-3-ylamino)-3-(1h-imidazol-5-yl)propanoate] the IC50 [1] was 90 nM.
Work on Cc1noc(C)c1-c1ccc2c(c1)C(N)(c1ccc(F)cc1)C(=O)N2 (stereo not drawn) [Compound 2.59, 3-amino-5-(3,5-dimethylisoxazol-4-yl)-3-(4-fluorophenyl)indolin-2-one] yielded an IC50 [1] of 97 nM.
Cc1noc(C)c1-c1ccc2c(c1)C(CC(=O)O)(c1ccccc1)C(=O)N2 (stereo not drawn) [Compound 3.4, 2-(5-(3,5-dimethylisoxazol-4-yl)-2-oxo-3-phenylindolin-3-yl)acetic acid] showed an IC50 [1] of 6100 nM.
For CC(=O)CC1(O)C(=O)Nc2ccc(-c3c(C)noc3C)cc21 (stereo not drawn) [Compound 4.2, 5-(3,5-dimethylisoxazol-4-yl)-3-hydroxy-3-(2-oxopropyl)indolin-2-one], the IC50 [1] was 670 nM.
In the case of Cc1noc(C)c1-c1ccc2c(c1)C(NCCO)(c1ccsc1)C(=O)N2 (stereo not drawn) [Compound 4.3, 5-(3,5-Dimethylisoxazol-4-yl)-3-(2-hydroxyethylamino)-3-(thiophen-3-yl)indolin-2-one], the IC50 [1] is reported as 49 nM.
Cc1noc(C)c1-c1ccc2c(c1)C(N)(c1ccsc1)C(=O)N2 (stereo not drawn) [Compound 4.4, 3-AMINO-5-(3,5-DIMETHYLISOXAZOL-4-YL)-3-(THIOPHEN-3-YL)INDOLIN-2-ONE] was tested, and the IC50 [1] was 400 nM.
Cc1noc(C)c1-c1ccc2c(c1)C(c1ccsc1)(N1CCC(O)CC1)C(=O)N2 (stereo not drawn) [Compound 4.5, 5-(3,5-DIMETHYLISOXAZOL-4-YL)-3-(4-HYDROXYPIPERIDIN-1-YL)-3-(THIOPHEN-3-YL)INDOLIN-2-ONE] gave an IC50 [1] of 25 nM.
Cc1noc(C)c1-c1ccc2c(c1)C(c1ccsc1)(N1CCCC(O)C1)C(=O)N2 (stereo not drawn) [Compound 4.8, 5-(3,5-dimethylisoxazol-4-yl)-3-(3-hydroxypiperidin-1-yl)-3-(thiophen-3-yl)indolin-2-one] gave an EC50 (MV4-11; Homo sapiens, MV4-11, 72 h) of 42 nM.
Cc1noc(C)c1-c1ccc2c(c1)C(c1ccsc1)C(=O)N2 (stereo not drawn) [Compound 4.11, 5-(3,5-Dimethylisoxazol-4-yl)-3-(thiophen-3-yl)indolin-2-one] was tested, and the IC50 [1] was 120 nM.
COc1cc(-c2c(C)noc2C)cc2c1NC(=O)C2(O)c1ccccc1 (stereo not drawn) [Compound 5.1, 5-(3,5-Dimethylisoxazol-4-yl)-3-hydroxy-7-methoxy-3-phenylindolin-2-one] was tested, and the IC50 [1] was 450 nM.
